In patent EP0019589A1, “Tripeptide derivatives and their use in a process for determining enzymes” (Pentapharm A.G., priority 1979, dated 1980):
Non-standard residues stand in square brackets, D forms with d. Residues, ends and D or L forms follow the SMILES beside them. *: point of attachment. Cha = N[C@@H](CC1CCCCC1)C(=O)O; dCha = N[C@H](CC1CCCCC1)C(=O)O; dChg = N[C@@H](C(=O)O)C1CCCCC1; pNA = O=[N+]([O-])c1ccc(N*)cc1; Phg = N[C@H](C(=O)O)c1ccccc1; dNle = CCCC[C@@H](N)C(=O)O; dNva = CCC[C@@H](N)C(=O)O; Nva = CCC[C@H](N)C(=O)O; Abu = CC[C@H](N)C(=O)O

How the values were obtained:
Format in all cases: biochemical
Urinkallikrein = molecular target: T1, Urinkallikrein (Homo sapiens, UniProt P06870); assay: Cleavage of chromogenic substrate by urinary kallikrein in human urine; settings: 1 ml human urine (pooled morning urine of healthy persons), per min; Substratkonzentration 2 x 10^-4 molar
T1 construct: 1 ml Urin und 1 ml TRIS-Imidazol-Puffer mit pH 7,9; from tissue; host or cells: human urine
T1 sequence (P06870 25-262): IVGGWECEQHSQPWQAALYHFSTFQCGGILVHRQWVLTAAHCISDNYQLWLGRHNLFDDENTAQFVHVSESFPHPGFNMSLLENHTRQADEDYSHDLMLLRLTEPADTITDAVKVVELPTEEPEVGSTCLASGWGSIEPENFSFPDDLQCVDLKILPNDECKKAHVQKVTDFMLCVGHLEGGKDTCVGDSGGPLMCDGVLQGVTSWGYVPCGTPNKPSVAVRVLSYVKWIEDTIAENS

Humanthrombin = molecular target: T2, Humanthrombin (Homo sapiens, UniProt P00734); assay: Cleavage of chromogenic substrate by human NIH thrombin; settings: 1 NIH-Einheit human thrombin, per min; Substratkonzentration 2 x 10^-4 molar
T2 construct: Humanplasmin und hu-manem NIH-Thrombin
Outline: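 Thrombin hydrolysis of chromogenic p-nitroanilide substrate read spectrophotometrically at 405 nm; fluorogenic naphthylamine, methylcoumarylamine or di(methoxycarbonyl)phenylamine substrates read continuously by fluorescence emission at 400-470 nm. Activity taken as product formed per unit time; 1 µmol product/min defined as 1 enzyme unit for a given substrate.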

Humanplasmin = molecular target: T3, Humanplasmin (Homo sapiens, UniProt P00747); assay: Cleavage of chromogenic substrate by human plasmin; settings: 1 CU-Einheit human plasmin, per min; Substratkonzentration 2 x 10^-4 molar
T3 construct: da bei der Aktivierung aus 1 Molekül Plasminogen 1 Molekül Plasmin entsteht
T3 sequence (P00747 581-810 limits assumed): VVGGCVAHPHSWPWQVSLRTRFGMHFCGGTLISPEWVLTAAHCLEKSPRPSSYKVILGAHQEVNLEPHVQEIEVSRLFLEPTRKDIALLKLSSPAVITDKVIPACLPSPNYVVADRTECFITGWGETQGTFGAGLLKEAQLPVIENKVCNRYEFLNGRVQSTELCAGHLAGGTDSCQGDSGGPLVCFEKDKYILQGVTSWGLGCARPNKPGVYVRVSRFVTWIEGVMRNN
T3 sequence (P00747 97-580 partner limits assumed): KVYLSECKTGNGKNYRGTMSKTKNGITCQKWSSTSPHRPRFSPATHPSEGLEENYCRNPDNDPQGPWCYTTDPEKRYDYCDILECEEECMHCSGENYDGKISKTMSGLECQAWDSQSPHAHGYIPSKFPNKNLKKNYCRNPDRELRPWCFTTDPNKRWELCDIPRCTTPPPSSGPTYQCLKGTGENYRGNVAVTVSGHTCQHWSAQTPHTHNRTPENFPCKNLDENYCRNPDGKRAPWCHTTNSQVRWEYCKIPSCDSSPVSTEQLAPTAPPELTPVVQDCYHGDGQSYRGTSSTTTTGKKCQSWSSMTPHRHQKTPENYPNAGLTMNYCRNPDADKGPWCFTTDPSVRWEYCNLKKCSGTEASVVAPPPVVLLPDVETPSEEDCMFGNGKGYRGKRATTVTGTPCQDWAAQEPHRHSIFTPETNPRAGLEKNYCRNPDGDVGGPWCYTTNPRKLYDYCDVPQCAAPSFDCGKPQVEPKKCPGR

[1] = molecular target: T4, Submandibularis-Kallikrein (Homo sapiens, UniProt P06870); assay: Cleavage of chromogenic substrate by submandibular (glandular) kallikrein in human sputum; settings: 1 ml human sputum, per min; Substratkonzentration 2 x 10^-4 molar
T4 construct: Man mischt 0,5 ml Sputum mit 2 ml TRIS-Imidazol-Puffer; from tissue; host or cells: human sputum
T4 sequence (P06870 25-262): as the sequence (P06870 25-262) above
Outline: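 Sputum mixed with TRIS-imidazole buffer (ionic strength 1.0), preincubated 5 min at 37°C and centrifuged; supernatant incubated with aqueous substrate solution (2 x 10^-3 M, stock). p-Nitroaniline release followed continuously at 405 nm for 5-10 min; activity expressed as mU per ml sputum from ΔOD/min.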

| Compound | Menge des durch 1 ml Humanurin pro Min. freigesetzten Spaltproduktes R-NH2 in Nanomol (Urinkallikrein) (Urinkallikrein) | Menge des durch 1 NIH-Einheit Thrombin pro Min. freigesetzten Spaltproduktes R-NH2 in Nanomol (Humanthrombin) (Humanthrombin) | Menge des durch 1 CU-Einheit Humanplasmin pro Min. freigesetzten Spaltproduktes R-NH2 in Nanomol (Humanplasmin) (Humanplasmin) [Nanomol] | Menge des durch 1 ml Humansputum pro Min. freigesetzten Spaltproduktes R-NH2 in Nanomol (Submandibularis-Kallikrein) [1] |
| --- | --- | --- | --- | --- |
| CCC[C@H](NC(=O)[C@H](N)CC1CCCCC1)C(=O)N[C@@H](CCCNC(=N)N)C(=O)Nc1ccc([N+](=O)[O-])cc1 [Beispiel 69, 2HBr.H-D-CHA-Nval-Arg-pNA] (H-[dCha]-[Nva]-Arg-pNA) | 0,35 Nanomol | 97,1 Nanomol | 574 | 14,2 Nanomol |
| C[C@H](NC(=O)[C@H](N)C1CCCCC1)C(=O)N[C@@H](CCCNC(=N)N)C(=O)Nc1ccc([N+](=O)[O-])cc1 [Beispiel 48, 2HBr.H-D-CHG-Ala-Arg-pNA] (H-[dChg]-Ala-Arg-pNA) | 0,72 Nanomol | 158 Nanomol | 239 | 9,5 Nanomol |
| CCC[C@@H](N)C(=O)N[C@@H](CC1CCCCC1)C(=O)N[C@@H](CCCNC(=N)N)C(=O)Nc1ccc([N+](=O)[O-])cc1 [Beispiel 38, 2HBr.H-D-Nval-CHA-Arg-pNA] (H-[dNva]-[Cha]-Arg-pNA) | 3,12 Nanomol | 5,1 Nanomol | 969 | 41,3 Nanomol |
| CC(C)C[C@H](NC(=O)[C@H](N)CC1CCCCC1)C(=O)N[C@@H](CCCNC(=N)N)C(=O)Nc1ccc([N+](=O)[O-])cc1 [Beispiel 52, 2HBr.H-D-CHA-Leu-Arg-pNA] (H-[dCha]-Leu-Arg-pNA) | 0,64 Nanomol | 57,6 Nanomol | 555 | 8,8 Nanomol |
| C[C@@H](N)C(=O)N[C@H](C(=O)N[C@@H](CCCNC(=N)N)C(=O)Nc1ccc([N+](=O)[O-])cc1)c1ccccc1 [Beispiel 55, 2HBr.H-D-Ala-Ph'Gly-Arg-pNA] (H-[dA]-[Phg]-Arg-pNA) | 0,42 Nanomol | 4,2 Nanomol | 141 | 23,5 Nanomol |
| CCCC[C@@H](N)C(=O)N[C@@H](CC1CCCCC1)C(=O)N[C@@H](CCCCN)C(=O)Nc1ccc([N+](=O)[O-])cc1 [Beispiel 74, 2HBr.H-D-Nleu-CHA-Lys-pNA] (H-[dNle]-[Cha]-Lys-pNA) | 0,77 Nanomol | 3,9 Nanomol | 695 | 8,4 Nanomol |
| N=C(N)NCCC[C@H](NC(=O)[C@@H](NC(=O)[C@H](N)C1CCCCC1)c1ccccc1)C(=O)Nc1ccc([N+](=O)[O-])cc1 [Beispiel 58, 2HBr.H-D-CHG-Ph'Gly-Arg-pNA] (H-[dChg]-[Phg]-Arg-pNA) | 0,38 Nanomol | 63,7 Nanomol | 446 | 22,1 Nanomol |
| 2HBr.H-D-CHT-Pro-Arg-pNA [Beispiel 23] | 1,20 Nanomol | 45,8 Nanomol | 690 | 21,4 Nanomol |
| CCCC[C@@H](N)C(=O)N[C@@H](CC1CCCCC1)C(=O)N[C@@H](CCCNC(=N)N)C(=O)Nc1ccc([N+](=O)[O-])cc1 [Beispiel 37, 2HBr.H-D-Nleu-CHA-Arg-pNA] (H-[dNle]-[Cha]-Arg-pNA) | 2,08 Nanomol | 7,3 Nanomol | 1179 | 28,1 Nanomol |
| CC[C@H](NC(=O)[C@H](N)C1CCCCC1)C(=O)N[C@@H](CCCNC(=N)N)C(=O)Nc1ccc([N+](=O)[O-])cc1 [Beispiel 75, 2HBr.H-D-CHG-But-Arg-pNA] (H-[dChg]-[Abu]-Arg-pNA) | 0,51 Nanomol | 102,9 Nanomol | 439 | 14,5 Nanomol |
